Experiments:
[1] = tested on: Pseudoperonospora cubensis; assay: Cucumber Downy Mildew foliar spray test, inoculated one day after treatment; assay type: in vivo; conditions: applied to foliage at 200 ppm, cucumber plants, read-out: Activity against Fungal Diseases PSPECU (percent disease control)
Experimental: Fungicide activity data are the level (in percent) at which the given disease was controlled when the given compound was applied to the foliage of the plants at 200 ppm. In a few cases (noted in the table) the compound was applied to the plants at 25 ppm or 3 ppm. The plants were inoculated with the fungus one day after treatment. ***=80-100% control; **=50-79% control; *=0-49% control. […] The activity of the compounds as effective fungicides was determined by applying the compounds to plants and observing control of fungal disease. […] All plants were inoculated with spores of the fungus the day after treatment, then incubated in an environment conducive to disease development. Disease severity was evaluated 4 to 25 days (d) later, depending on the speed of disease development. The following experiments were performed in the laboratory to determine the fungicidal efficacy of the compounds of the invention. Cucumber Downy Mildew (causal agent Pseudoperonospora cubensis; Bayer code […]): Cucumber plants (variety 'Bush Champion' or 'Bush Pickle Hybrid') were grown from seed in a soil-less peat-based potting mixture (Metromix) until the first true leaf was 20-80% expanded. Each pot contained 1 seedling. These plants were sprayed until wet with the formulated test compound. On the following day, the leaves were inoculated with an aqueous suspension of downy mildew sporangia and the plants were kept in high humidity for one day to permit sporangia to germinate and infect the leaf. The plants were then incubated in a growth chamber until disease developed on untreated control plants. […] The effectiveness of the test compounds at controlling disease when sprayed on leaves was determined by assessing the severity of disease on treated plants, then converting the severity to percent control based on the level of disease on untreated, inoculated plants.

[2] = tested on: Puccinia recondita tritici; assay: Leaf Rust of Wheat foliar spray test, inoculated one day after treatment; assay type: in vivo; conditions: applied to foliage at 200 ppm, wheat plants, read-out: Activity against Fungal Diseases PUCCRT (percent disease control)
Experimental: (§1) Fungicide activity data are the level (in percent) at which the given disease was controlled when the given compound was applied to the foliage of the plants at 200 ppm. In a few cases (noted in the table) the compound was applied to the plants at 25 ppm or 3 ppm. The plants were inoculated with the fungus one day after treatment. ***=80-100% control; **=50-79% control; *=0-49% control. […] The activity of the compounds as effective fungicides was determined by applying the compounds to plants and observing control of fungal disease. […] All plants were inoculated with spores of the fungus the day after treatment, then incubated in an environment conducive to disease development. Disease severity was evaluated 4 to 25 days (d) later, depending on the speed of disease development. The following experiments were performed in the laboratory to determine the fungicidal efficacy of the compounds of the invention. […] Each pot contained 3-8 seedlings. These plants were sprayed until wet with the formulated test compounds. On the following day, the leaves were inoculated with an aqueous spore suspension of Puccinia recondita tritici and the plants were kept in high humidity overnight to permit spores to germinate and infect the leaf. The plants were then transferred to a greenhouse until disease developed on untreated control plants. […] The effectiveness of the test compounds at controlling disease when sprayed on leaves was determined by assessing the severity of disease on treated plants, then converting the severity to percent control based on the level of disease on untreated, inoculated plants.

Pyricularia oryzae = assay: whole plant or invertebrate; assay type: in vivo; conditions: foliar, read-out: Activity against Fungal Diseases PYRIOR (percent disease control)
Septoria tritici = assay: Septoria Blotch of Wheat foliar spray test, inoculated one day after treatment; assay type: in vivo; conditions: Zymoseptoria tritici, wheat plants, read-out: Activity against Fungal Diseases SEPTTR (percent disease control); for pest or weed control at 25 ppm: Tested at 25 ppm; for pest or weed control at 200 ppm: applied to foliage at 200 ppm
Experimental: as §1, with “3-10” for “3-8”, “compound.” for “compounds.”, “Septoria” for “Puccinia recondita”, “(one day in a dark dew chamber followed by two days in a lighted dew chamber)” for “overnight”

With COc1cc(CCNc2ncnc3scnc23)ccc1O [Compound 12, 2-methoxy-4-[2-(thiazolo[5,4-d]pyrimidin-7-ylamino)-ethyl]-phenol] the melting point was 151 to 154 °C.
Work on Cc1cc(CCNc2ncnc3scnc23)ccc1Oc1c(Cl)cnc(C(F)(F)F)c1Cl [Compound 49, {2-[4-(3,5-dichloro-2-trifluoromethylpyridin-4-yloxy)-3-methylphenyl]-ethyl}-thiazolo[5,4-d]pyrimidin-7-ylamine] yielded a pest or weed control at 200 ppm [1] of 50 to 79%, a pest or weed control at 200 ppm [2] of 50 to 79% and a pest or weed control at 200 ppm (Pyricularia oryzae) of 80 to 100%. For the same molecule, the pest or weed control at 25 ppm (Septoria tritici) was 0 to 49%.
Molecule CC(Nc1ncnc2scnc12)c1ccc(Oc2cc(C(F)(F)F)ccn2)cc1 (stereo not drawn) [Compound 35, thiazolo[5,4-d]pyrimidin-7-yl-{1-[4-(4-trifluoromethylpyridin-2-yloxy)-phenyl]-ethyl}-amine] has a pest or weed control at 200 ppm [1] of 80 to 100%, a pest or weed control at 200 ppm [2] of 80 to 100% and a pest or weed control at 200 ppm (Pyricularia oryzae) of 80 to 100%. For the same molecule, the pest or weed control at 200 ppm (Septoria tritici) was 80 to 100%.
Molecule FC(F)(F)c1cccnc1Oc1ccc(CCNc2ncnc3scnc23)cc1 [Compound 8, thiazolo[5,4-d]pyrimidin-7-yl-{2-[4-(3-trifluoromethylpyridin-2-yloxy)-phenyl]-ethyl}-amine] has a pest or weed control at 200 ppm [1] of 80 to 100%, a pest or weed control at 200 ppm [2] of 80 to 100% and a pest or weed control at 200 ppm (Pyricularia oryzae) of 80 to 100%. For the same molecule, the pest or weed control at 200 ppm (Septoria tritici) was 80 to 100%.
COc1cc(CCNc2ncnc3scnc23)ccc1Oc1cc(C(F)(F)F)cc[n+]1[O-] [Compound 42, {2-[3-methoxy-4-(1-oxy-4-trifluoromethylpyridin-2-yloxy)-phenyl]-ethyl}-thiazolo[5,4-d]pyrimidin-7-ylamine] gave a pest or weed control at 200 ppm [1] of 80 to 100%, a pest or weed control at 200 ppm [2] of 80 to 100% and a pest or weed control at 200 ppm (Pyricularia oryzae) of 80 to 100%. For the same molecule, the pest or weed control at 200 ppm (Septoria tritici) was 80 to 100%.
Work on FC(F)(F)c1ccncc1Oc1ccc(CCNc2ncnc3scnc23)cc1 [Compound 43, thiazolo[5,4-d]pyrimidin-7-yl-{2-[4-(4-trifluoromethylpyridin-3-yloxy)-phenyl]-ethyl}-amine] yielded a pest or weed control at 200 ppm [1] of 80 to 100%, a pest or weed control at 200 ppm [2] of 80 to 100% and a pest or weed control at 200 ppm (Pyricularia oryzae) of 80 to 100%. It also gave a pest or weed control at 200 ppm (Septoria tritici) of 80 to 100%.
Work on Cc1cc(CCNc2ncnc3scnc23)ccc1Oc1ncccc1C(F)(F)F [Compound 24, {2-[3-methyl-4-(3-trifluoromethylpyridin-2-yloxy)-phenyl]-ethyl}-thiazolo[5,4-d]pyrimidin-7-ylamine] yielded a pest or weed control at 200 ppm [1] of 80 to 100%, a pest or weed control at 200 ppm [2] of 80 to 100% and a pest or weed control at 200 ppm (Pyricularia oryzae) of 50 to 79%. For the same molecule, the pest or weed control at 200 ppm (Septoria tritici) was 80 to 100%.
In the case of COC(=O)c1cnc(Oc2ccc(CCNc3ncnc4scnc34)cc2)cc1C(F)(F)F [Compound 16, 6-{4-[2-(thiazolo[5,4-d]pyrimidin-7-ylamino)-ethyl]-phenoxy}-4-trifluoromethyl-nicotinic acid methyl ester], the pest or weed control at 200 ppm [1] is reported as 80 to 100%, the pest or weed control at 200 ppm [2] is reported as 80 to 100% and the pest or weed control at 200 ppm (Pyricularia oryzae) is reported as 50 to 79%. The pest or weed control at 200 ppm (Septoria tritici) was 50 to 79%.
For Fc1cnc(Oc2ccc(CCNc3ncnc4scnc34)cc2)c(F)c1C(F)(F)F [Compound 36, {2-[4-(3,5-difluoro-4-trifluoromethylpyridin-2-yloxy)-phenyl]-ethyl}-thiazolo[5,4-d]pyrimidin-7-ylamine], the pest or weed control at 200 ppm [1] was 80 to 100%, the pest or weed control at 200 ppm [2] was 80 to 100% and the pest or weed control at 200 ppm (Pyricularia oryzae) was 80 to 100%. It also gave a pest or weed control at 200 ppm (Septoria tritici) of 80 to 100%.
With c1ccc2c(c1)oc1ccc(CCNc3ncnc4scnc34)cc12 [Compound 44, (2-dibenzofuran-2-ylethyl)-thiazolo[5,4-d]pyrimidin-7-yl-amine] the pest or weed control at 200 ppm [1] was 80 to 100%, the pest or weed control at 200 ppm [2] was 0 to 49% and the pest or weed control at 200 ppm (Pyricularia oryzae) was 80 to 100%. The pest or weed control at 200 ppm (Septoria tritici) was 50 to 79%.
Work on COC(=O)c1cnc(Oc2ccc(CCNc3ncnc4scnc34)cc2Br)cc1C(F)(F)F [Compound 27, 6-{2-bromo-4-[2-(thiazolo[5,4-d]pyrimidin-7-ylamino)-ethyl]-phenoxy}-4-trifluoromethyl-nicotinic acid methyl ester] yielded a pest or weed control at 200 ppm [1] of 80 to 100%, a pest or weed control at 200 ppm [2] of 80 to 100% and a pest or weed control at 200 ppm (Pyricularia oryzae) of 80 to 100%. The pest or weed control at 200 ppm (Septoria tritici) was 50 to 79%.
In the case of Cc1cc(CCNc2ncnc3scnc23)ccc1Oc1cc(C(F)(F)F)ncn1 [Compound 53, {2-[3-methyl-4-(6-trifluoromethylpyrimidin-4-yloxy)-phenyl]-ethyl}-thiazolo[5,4-d]pyrimidin-7-ylamine], the pest or weed control at 200 ppm [1] is reported as 80 to 100%, the pest or weed control at 200 ppm [2] is reported as 80 to 100% and the pest or weed control at 200 ppm (Pyricularia oryzae) is reported as 80 to 100%. It also gave a pest or weed control at 25 ppm (Septoria tritici) of 80 to 100%.
With CC(Cc1ccc(Oc2cc(C(F)(F)F)ccn2)cc1)Nc1ncnc2scnc12 (stereo not drawn) [Compound 18, {1-methyl-2-[4-(4-trifluoromethylpyridin-2-yloxy)-phenyl]-ethyl}-thiazolo[5,4-d]pyrimidin-7-ylamine] the pest or weed control at 200 ppm [1] was 80 to 100%, the pest or weed control at 200 ppm [2] was 80 to 100% and the pest or weed control at 200 ppm (Pyricularia oryzae) was 80 to 100%. For the same molecule, the pest or weed control at 200 ppm (Septoria tritici) was 80 to 100%.
With Cc1cc(CCNc2ncnc3scnc23)ccc1Oc1cc(C(F)(F)F)ccn1 [Compound 23, {2-[3-methyl-4-(4-trifluoromethylpyridin-2-yloxy)-phenyl]-ethyl}-thiazolo[5,4-d]pyrimidin-7-ylamine] the pest or weed control at 200 ppm [1] was 80 to 100%, the pest or weed control at 200 ppm [2] was 80 to 100% and the pest or weed control at 200 ppm (Pyricularia oryzae) was 80 to 100%. The pest or weed control at 200 ppm (Septoria tritici) was 80 to 100%.
Work on COc1cc(CCNc2ncnc3scnc23)ccc1Oc1ccncc1C(F)(F)F [Compound 31, {2-[3-methoxy-4-(3-trifluoromethylpyridin-4-yloxy)-phenyl]-ethyl}-thiazolo[5,4-d]pyrimidin-7-ylamine] yielded a pest or weed control at 200 ppm [1] of 50 to 79%, a pest or weed control at 200 ppm [2] of 80 to 100% and a pest or weed control at 200 ppm (Pyricularia oryzae) of 80 to 100%. For the same molecule, the pest or weed control at 25 ppm (Septoria tritici) was 80 to 100%.
COc1cc(CCNc2ncnc3scnc23)ccc1Oc1c(F)cnc(C(F)(F)F)c1F [Compound 32, {2-[4-(3,5-difluoro-2-trifluoromethylpyridin-4-yloxy)-3-methoxyphenyl]-ethyl}-thiazolo[5,4-d]pyrimidin-7-ylamine] gave a pest or weed control at 200 ppm [1] of 80 to 100%, a pest or weed control at 200 ppm [2] of 80 to 100% and a pest or weed control at 200 ppm (Pyricularia oryzae) of 80 to 100%. The pest or weed control at 25 ppm (Septoria tritici) was 80 to 100%.
With Cc1cc(Oc2cc(C(F)(F)F)ccn2)ccc1OCCNc1ncnc2scnc12 [Compound 9, {2-[2-methyl-4-(4-trifluoromethylpyridin-2-yloxy)-phenoxy]-ethyl}-thiazolo[5,4-d]pyrimidin-7-ylamine] the pest or weed control at 200 ppm [1] was 80 to 100%, the pest or weed control at 200 ppm [2] was 80 to 100% and the pest or weed control at 200 ppm (Pyricularia oryzae) was 80 to 100%. For the same molecule, the pest or weed control at 200 ppm (Septoria tritici) was 80 to 100%.
FC(F)(F)c1ccnc(Oc2ccc(CCNc3ncnc4scnc34)cc2)c1 [Compound 7, thiazolo[5,4-d]pyrimidin-7-yl-{2-[4-(4-trifluoromethylpyridin-2-yloxy)-phenyl]-ethyl}-amine] showed a pest or weed control at 200 ppm [1] of 80 to 100%, a pest or weed control at 200 ppm [2] of 80 to 100% and a pest or weed control at 200 ppm (Pyricularia oryzae) of 80 to 100%. The pest or weed control at 200 ppm (Septoria tritici) was 80 to 100%.
